Source: BindingDB's records for patent US11944616 (Institut National De La Sante Et De La Recherche Medicale …, 2024)

Molecular target: Glutamate receptor ionotropic, NMDA 1 (Rattus norvegicus, UniProt P35439)
Experiment: In Vitro Activity Assay
Source text: In Vitro Activity: Evaluation of NMDAR Blocking Activity Using Patch-ClampPrevious studies have shown that the NMDAR exists in the peripheral vasculature.All NMDAR subunits were examined by RT-PCR and sequencing in the peripheral endothelium and peripheral vascular smooth muscle cells.

Molecule `CC[N@@+]1(CCO)[C@H]2Cc3ccccc3[C@@]1(C)c1ccccc12` [US11944616, Compound 27] has an IC50 of 360 nM.
